Data published in PMC6534834 (Breast Cancer Research : BCR, 2019).
Like-named read-outs stand apart in the source and are kept apart here.

Tests used:
FGFR = details: at the RP2D; cited from earlier work
aromatase [1] = molecular target: T1, aromatase (Homo sapiens, UniProt P11511); assay: Plasma 17-B-estradiol level (clinical assay, LLD 5 pg/mL), pharmacodynamic marker of aromatase inhibition in patients; type: in vivo; parameters: endogenous in cells; host or cells: Tissues of the trial patients (in vivo)
T1 sequence (P11511 1-503): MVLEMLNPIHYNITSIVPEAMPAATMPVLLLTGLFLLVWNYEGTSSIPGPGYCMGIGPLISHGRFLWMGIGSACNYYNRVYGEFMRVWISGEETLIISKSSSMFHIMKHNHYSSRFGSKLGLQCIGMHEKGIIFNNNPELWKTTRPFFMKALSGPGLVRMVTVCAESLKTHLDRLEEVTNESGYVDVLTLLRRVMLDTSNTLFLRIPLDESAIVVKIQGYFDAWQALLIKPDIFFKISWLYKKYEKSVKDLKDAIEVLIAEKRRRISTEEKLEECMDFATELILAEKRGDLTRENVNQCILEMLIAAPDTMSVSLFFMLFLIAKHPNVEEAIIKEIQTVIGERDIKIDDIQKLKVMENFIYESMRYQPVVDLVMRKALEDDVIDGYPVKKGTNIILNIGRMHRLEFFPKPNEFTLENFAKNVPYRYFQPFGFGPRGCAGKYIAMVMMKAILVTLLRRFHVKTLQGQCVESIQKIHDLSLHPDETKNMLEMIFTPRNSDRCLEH

[2] = human, in vivo
[3] = Nintedanib (BIBF1120-BS and metabolite BIBF1202-ZW) plasma pharmacokinetics (LC-MS/MS); type: in vivo, human; details: for Pharmacokinetic interaction: increase in plasma concentrations: nintedanib and letrozole co-administered, three- for nintedanib, twofold for letrozole (respective); for Mean plasma concentration at steady state (day 29) compared with day 1: level 2; for Mean Cmax / Mean AUC0-last / Mean Tmax / Cmax / Tmax / AUC(0-t): nintedanib species in plasma; for Cmax / Tmax / AUC(0-t): human, plasma, oral; for AUC(0-t): read-out: Mean AUC0-last
[4] = Letrozole plasma pharmacokinetics (UPLC-MS/MS); type: in vivo, human; details: letrozole in plasma; for Cmax / AUC(0-t) / Tmax: human, plasma, oral; for AUC(0-t): read-out: Mean AUC0-last
aromatase [5] = molecular target: T1, aromatase; parameters: endogenous in cells; host or cells: Tissues of the trial patients (in vivo); details: cited from earlier work; for Patients with 17-B-estradiol above the LLD: randomized 3-month crossover letrozole/anastrozole
Cyp3A4 = details: cited from earlier work
[6] = test system: tumors with FGFR gene alterations; details: cited from earlier work
[7] = level 1 (nintedanib 150 mg/bid + letrozole […]), day 1
[8] = level 2 (nintedanib 200 mg/bid + letrozole […]), day 1

COc1cc(OC)cc(N(CCNC(C)C)c2ccc3ncc(-c4cnn(C)c4)nc3c2)c1 [JNJ-42756493]
Increase in FGF23 concentrations (FGFR): ~ 20%

N#Cc1ccc(C(c2ccc(C#N)cc2)n2cncn2)cc1 [letrozole]
Patients with undetectable 17-B-estradiol levels (below LLD 5 pg/mL) (aromatase [1]; EOT visit, 4 weeks after ceasing nintedanib administration): 100%
Patients with undetectable 17-B-estradiol levels (below LLD 5 pg/mL) (aromatase [1]; day 1 (baseline), letrozole alone […] for at least 4 weeks): 87.5%
Grade 3 toxic events attributed to letrozole [2]: No grade 3 toxic events were attributed to letrozole
Pharmacokinetic interaction: increase in plasma concentrations [3]: three- and twofold increases in their respective plasma concentrations
Cmax ([4]; Level 1 (nintedanib 150 mg/bid + letrozole […]), day 1): 100 ng/mL
AUC(0-t) ([4]; Level 1, day 1): 2200 ng·h/mL
Cmax ([4]; Level 1, day 29): 89.4 ng/mL
Tmax ([4]; Level 1, day 29): 4 h
AUC(0-t) ([4]; Level 1, day 29): 2060 ng·h/mL
Cmax ([4]; Level 2 (nintedanib 200 mg/bid + letrozole […]), day 1): 124 ng/mL
Tmax ([4]; Level 2, day 1): 4 h
AUC(0-t) ([4]; Level 2, day 1): 2780 ng·h/mL
Cmax ([4]; Level 2, day 29): 148 ng/mL
Tmax ([4]; Level 2, day 29): 2 h
AUC(0-t) ([4]; Level 2, day 29): 3170 ng·h/mL
Mean Tmax ([4]; Level 1, day 1): 0 h
Suppression of aromatase activity (aromatase [5]; early letrozole trials): > 95%
Patients with 17-B-estradiol above the LLD (aromatase [5]): 2%
Metabolizing enzyme (Cyp3A4; no reference given): metabolized by Cyp3A4

CN1CCN(CC(=O)N(C)c2ccc(N/C(=C3\C(=O)Nc4cc(C(=O)O)ccc43)c3ccccc3)cc2)CC1 [BIBF1202-ZW]
Mean plasma concentration at steady state (day 29) compared with day 1 [3]: almost twofold higher
Mean Cmax [3, 7]: 24 ng/mL
Mean AUC0-last ([3]; level 1, day 1): 200 ng·h/mL
Mean Tmax ([3]; level 1, day 1): 1.9 h
Mean AUC0-last ([3]; level 1, day 29): 367 ng·h/mL
Mean Cmax ([3]; level 1, day 29): 28 ng/mL
Mean Tmax ([3]; level 1, day 29): 1.1 h
Mean Cmax [3, 8]: 41 ng/mL
Mean AUC0-last ([3]; level 2, day 1): 413 ng·h/mL
Mean Tmax ([3]; level 2, day 1): 3.3 h
Mean AUC0-last ([3]; level 2, day 29): 824 ng·h/mL
Mean Cmax ([3]; level 2, day 29): 67 ng/mL
Mean Tmax ([3]; level 2, day 29): 3.0 h

AZD4547
Disease stabilization rate ([6]; MATCH arm W, patients with FGFR amplifications): 50%
Response rate ([6]; arm W of the MATCH trial): 8%

CC(C)(C#N)c1cc(Cn2cncn2)cc(C(C)(C)C#N)c1 [anastrozole]
Patients with plasma 17-B-estradiol concentrations below the LLD (aromatase [5]; n = 191): 83%
Patients with 17-B-estradiol above the LLD (aromatase [5]): 37%
Metabolizing enzyme (Cyp3A4): metabolized by Cyp3A4

COC(=O)c1ccc2c(c1)NC(=O)/C2=C(\Nc1ccc(N(C)C(=O)CN2CCN(C)CC2)cc1)c1ccccc1 [nintedanib]
Cmax [3, 7]: 51 ng/mL
Tmax ([3]; level 1, day 1): 1.9 h
AUC(0-t) ([3]; level 1, day 1): 339 ng·h/mL
Cmax ([3]; level 1, day 29): 50 ng/mL
Tmax ([3]; level 1, day 29): 1.1 h
AUC(0-t) ([3]; level 1, day 29): 519 ng·h/mL
Cmax [3, 8]: 65 ng/mL
Tmax ([3]; level 2, day 1): 2 h
AUC(0-t) ([3]; level 2, day 1): 599 ng·h/mL
Cmax ([3]; level 2, day 29): 92 ng/mL
Tmax ([3]; level 2, day 29): 2 h
AUC(0-t) ([3]; level 2, day 29): 941 ng·h/mL
BIBF1120-BS AUC on day 29 compared with day 1 ([3]; in vivo): almost twofold higher
Mean plasma concentration at steady state (day 29) compared with day 1 [3]: almost twofold higher
Pharmacokinetic interaction: increase in plasma concentrations [3]: three- and twofold increases in their respective plasma concentrations
BIBF1120-BS AUC on day 29 compared with steady-state values reported in phase I studies ([3]; versus nintedanib monotherapy [28], with pemetrexed [27], or paclitaxel plus carboplatin [47]): two to threefold higher
Metabolizing enzyme (Cyp3A4; no reference given): metabolized by Cyp3A4

CCN1CCN(c2ccc(Nc3cc(N(C)C(=O)Nc4c(Cl)c(OC)cc(OC)c4Cl)ncn3)cc2)CC1 [BGJ398]
Increase in FGF23 concentrations (FGFR): ~ 50%
